# What was measured:
# [1] = test system: pAKT in BT474 cells; experiment: Cell-based pAKT HTRF assay in BT474 cells; details: BT474 cells; 4 hr incubation; Compounds 10-999; read-out: pAKT inhibition IC50 in BT474 cells
# Procedure, shortened: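 pAKT was measured by HTRF after a 4 hr compound exposure in BT474 cells (DMEM, 10% FBS, 0.25% DMSO), using 9 concentrations from 3 μM in 3-fold steps. Cell lysates were incubated with the Eu cryptate/d2 antibody pair at room temperature for 4 to 24 h. The plate was then read at 320 nm excitation and 615 nm emission.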
# [2] = biological target: Cys242 in human PIK3CA (157-299) (Homo sapiens (Human), UniProt P42336); experiment: Covalent modification assay using MALDI-TOF MS; format: biochemical; details: 4 h reaction time point; 3.33 μM protein target, 1:7.5 protein to compound ratio (compounds 1-852)
# Procedure, shortened: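 PIK3CA (157-299), 3.33 or 1 μM in 20 mM HEPES, 150 mM NaCl, 2 mM MgCl2, pH 7.3, was incubated with compound at room temperature in the dark for 15 min, 30 min, 2 h or 4 h. Linear MALDI-TOF read-out; % modification = adduct peak height over summed heights of all protein species.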
# Cys242 in human PIK3CA (157-299), sequence (P42336 157-299): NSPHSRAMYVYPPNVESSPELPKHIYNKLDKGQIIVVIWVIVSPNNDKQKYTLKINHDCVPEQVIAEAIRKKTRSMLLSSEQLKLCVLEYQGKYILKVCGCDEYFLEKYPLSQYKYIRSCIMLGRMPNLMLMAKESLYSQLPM
Compound,IC50 [1] [nM],% of modification [2]
C=CC(=O)N1CCc2nc(-c3nc(-c4ccc5c(c4)CCN(C)C5)c4ccsc4c3-c3c(F)cc(F)cc3OC(CF)CF)sc2C1 [Compound 522],100 to 1000,A (percent of modification of PIK3CA protein ≥75%)
C=C(F)C(=O)N1CCn2nc(-c3nc(-c4ccc5c(c4)CCN(C)C5)c4ccsc4c3-c3c(F)cc(F)cc3OCC(C)O)cc2C1 (stereo not drawn) [Compound 527],100 to 1000,B (50%<percent of modification <75%)
C=CC(=O)N1CCn2nc(-c3nc(-c4ccc5ncn(C)c5c4)c4ccsc4c3-c3c(F)cc(F)cc3OCCOC)cc2C1C (stereo not drawn) [Compound 552],< 100,A (percent of modification of PIK3CA protein ≥75%)
C=CC(=O)N1CCn2nc(-c3nc(-c4cnc5c(c4)CN(C)C5=O)c4ccsc4c3-c3c(F)cc(F)cc3OCCOC)cc2C1C (stereo not drawn) [Compound 553],< 100,A (percent of modification of PIK3CA protein ≥75%)
C=CC(=O)N1Cc2cc(-c3nc(-c4cnc5c(c4)CNC5=O)c4ccsc4c3-c3c(F)cc(F)cc3OCCOC)nn2CC1C (stereo not drawn) [Compound 554],< 100,A (percent of modification of PIK3CA protein ≥75%)
C=CC(=O)N1Cc2cc(-c3nc(-c4ccc5c(c4)CCN(C)C5)c4ccsc4c3-c3c(F)cc(F)cc3OC(C)C)nn2C(C)C1 (stereo not drawn) [Compound 555],100 to 1000,D (percent of modification <25%)
C=CC(=O)N1Cc2cc(-c3nc(-c4ccc5c(c4)CCN(C)C5)c4ccsc4c3-c3c(F)cc(F)cc3OC(C)C)nn2C(C)C1 (stereo not drawn) [Compound 556],< 100,A (percent of modification of PIK3CA protein ≥75%)
C=CC(=O)N1Cc2cc(-c3nc(-c4ccc5c(c4)CCN(C)C5)c4ccsc4c3-c3c(F)cc(F)cc3OCCOC)nn2C(C)C1 (stereo not drawn) [Compound 558],100 to 1000,D (percent of modification <25%)
C=CC(=O)N1Cc2cc(-c3nc(-c4ccc5c(c4)CCN(C)C5)c4ccsc4c3-c3c(F)cc(F)cc3OCCOC)nn2[C@@H](C)C1 [Compound 560],< 100,A (percent of modification of PIK3CA protein ≥75%)
C=CC(=O)N1Cc2cc(-c3nc(-c4ccc5c(c4)CCN(C)C5)c4ccsc4c3-c3c(F)cc(F)cc3OC)nn2[C@@H](C)C1 [Compound 562],100 to 1000,C (25%≤percent of modification <50%)
C=CC(=O)N1Cc2cc(-c3nc(-c4ccc5c(c4)CCN(C)C5)c4ccsc4c3-c3c(F)cc(F)cc3OC)nn2[C@@H](C)C1 [Compound 563],< 100,A (percent of modification of PIK3CA protein ≥75%)
C=CC(=O)N1Cc2cc(-c3nc(-c4ccc5c(c4)CCN(C)C5)c4ccsc4c3-c3c(F)cc(F)cc3OCCO)nn2[C@@H](C)C1 [Compound 564],100 to 1000,D (percent of modification <25%)
C=CC(=O)N1Cc2cc(-c3nc(-c4ccc5c(c4)CCN(C)C5)c4ccsc4c3-c3c(F)cc(F)cc3OCCO)nn2[C@@H](C)C1 [Compound 565],< 100,A (percent of modification of PIK3CA protein ≥75%)
C=CC(=O)N1Cc2cc(-c3nc(-c4cnn(C)c4)c4ccsc4c3-c3c(F)cc(F)cc3OCCO)nn2[C@@H](C)C1 [Compound 566],100 to 1000,D (percent of modification <25%)
C=CC(=O)N1Cc2cc(-c3nc(-c4cnn(C)c4)c4ccsc4c3-c3c(F)cc(F)cc3OCCO)nn2[C@@H](C)C1 [Compound 567],< 100,A (percent of modification of PIK3CA protein ≥75%)
C=CC(=O)N1CCc2cc(-c3nc(-c4cnc5c(c4)CNC(=O)C5)c4ccsc4c3-c3c(F)cc(F)cc3OC(C)C)nn2CC1 [Compound 568],< 100,A (percent of modification of PIK3CA protein ≥75%)
C=CC(=O)N1CCc2cc(-c3nc(-c4cnn(C)c4)c4ccsc4c3-c3c(F)cc(F)cc3OC(C)C)nn2CC1 [Compound 569],< 100,A (percent of modification of PIK3CA protein ≥75%)
"C=CC(=O)N1Cc2cc(-c3nc(-c4ccc5nn(C)cc5c4)c4ccsc4c3-c3c(F)cc(F)cc3OC[C@@H](C)O)nn2[C@@H](C)C1 [Compound 571, 1-((S)-2-((R)-7-(2,4-difluoro-6-((R)-2-hydroxypropoxy)phenyl)-4-(2-methyl-2H-indazol-5-yl)thieno[3,2-c]pyridin-6-yl)-7-methyl-6,7-dihydropyrazolo[1,5-a]pyrazin-5(4H)-yl)prop-2-en-1-one]",< 100,D (percent of modification <25%)

# Further lines, with some results ahead:
IC50 [1] [nM],Compound,% of modification [2]
< 100,C=CC(=O)N1CCc2nc(-c3nc(-c4cnc5c(c4)CCN(C)C5)c4ccsc4c3-c3c(F)cc(F)cc3OC(C)C)sc2C1 [Compound 518],A (percent of modification of PIK3CA protein ≥75%)
< 100,C=CC(=O)N1Cc2cc(-c3nc(-c4cnn(C)c4)c4ccsc4c3-c3c(F)cc(F)cc3OCCO)nn2[C@@H](C)C1 [Compound 519],A (percent of modification of PIK3CA protein ≥75%)
< 100,C=CC(=O)N1CCn2nc(-c3nc(-c4ccc5c(c4)CNC5=O)c4ccsc4c3-c3c(F)cc(F)cc3OCCOC)cc2[C@H]1C [Compound 520],A (percent of modification of PIK3CA protein ≥75%)
< 100,C=CC(=O)N1CCc2nc(-c3nc(-c4cnc5c(c4)CCN(C)C5)c4ccsc4c3-c3c(F)cc(F)cc3OCCOC)sc2C1 [Compound 521],A (percent of modification of PIK3CA protein ≥75%)
< 100,C=CC(=O)N1Cc2cc(-c3nc(-c4ccc5nn(C)cc5c4)c4ccsc4c3-c3c(F)cc(F)cc3OC(C)C)nn2C[C@H]1C [Compound 525],A (percent of modification of PIK3CA protein ≥75%)
< 100,C=CC(=O)N1CCn2nc(-c3nc(-c4ccc(CN5CC(F)(F)C5)nc4)c4ccsc4c3-c3c(F)cc(F)cc3OCCOC)cc2[C@H]1C [Compound 529],A (percent of modification of PIK3CA protein ≥75%)
< 100,C=CC(=O)N1Cc2cc(-c3nc(-c4ccc5nn(C)cc5c4)c4ccsc4c3-c3c(F)cc(F)cc3OC(C)C)nn2CC1C (stereo not drawn) [Compound 530],A (percent of modification of PIK3CA protein ≥75%)
< 100,C=CC(=O)N1CCn2nc(-c3nc(-c4cnn(C)c4)c4ccsc4c3-c3c(F)cc(F)cc3OCCO)cc2C1C (stereo not drawn) [Compound 532],A (percent of modification of PIK3CA protein ≥75%)
< 100,C=CC(=O)N1CCn2nc(-c3nc(-c4ccc5c(c4)CCN(C)C5)c4ccsc4c3-c3c(F)cc(F)cc3OCCO)cc2C1C (stereo not drawn) [Compound 533],A (percent of modification of PIK3CA protein ≥75%)
< 100,C=CC(=O)N1Cc2cc(-c3nc(-c4cnn(C)c4)c4ccsc4c3-c3c(F)cc(F)cc3OCCO)nn2CC1C (stereo not drawn) [Compound 534],A (percent of modification of PIK3CA protein ≥75%)
< 100,C=CC(=O)N1CCn2nc(-c3nc(-c4ccc5c(c4)CCN(C)C5)c4ccsc4c3-c3c(F)cc(F)cc3OCCO)cc2C1C (stereo not drawn) [Compound 537],A (percent of modification of PIK3CA protein ≥75%)
< 100,C=CC(=O)N1CCn2nc(-c3nc(-c4cnn(C)c4)c4ccsc4c3-c3c(F)cc(F)cc3OCCO)cc2C1C (stereo not drawn) [Compound 538],A (percent of modification of PIK3CA protein ≥75%)
< 100,C=CC(=O)N1CCn2nc(-c3nc(-c4ccc5c(c4)CN(C)C5=O)c4ccsc4c3-c3c(F)cc(F)cc3OCCOC)cc2[C@H]1C [Compound 539],A (percent of modification of PIK3CA protein ≥75%)
< 100,C=CC(=O)N1CCn2nc(-c3nc(-c4ccc5c(c4)CCN(C)C5)c4ccsc4c3-c3c(F)cc(F)cc3OCCOC)cc2[C@@H]1C [Compound 544],A (percent of modification of PIK3CA protein ≥75%)
< 100,C=CC(=O)N1CCn2nc(-c3nc(-c4ccc5c(c4)CNC5=O)c4ccsc4c3-c3c(F)cc(F)cc3OCCOC)cc2[C@@H]1C [Compound 545],A (percent of modification of PIK3CA protein ≥75%)
< 100,C=CC(=O)N1CCn2nc(-c3nc(-c4ccc5c(c4)CCN(C)C5)c4ccsc4c3-c3c(F)cc(F)cc3OC[C@@H](C)O)cc2[C@@H]1C [Compound 546],A (percent of modification of PIK3CA protein ≥75%)
< 100,C=CC(=O)N1CCn2nc(-c3nc(-c4cnn(C)c4)c4ccsc4c3-c3c(F)cc(F)cc3OC[C@@H](C)O)cc2[C@@H]1C [Compound 547],A (percent of modification of PIK3CA protein ≥75%)
< 100,C=CC(=O)N1CCn2nc(-c3nc(-c4ccc5c(c4)CCN(C)C5)c4ccsc4c3-c3c(F)cc(F)cc3OC3CC3)cc2[C@@H]1C [Compound 548],A (percent of modification of PIK3CA protein ≥75%)
< 100,C=CC(=O)N1CCn2nc(-c3nc(-c4ccc5c(c4)CCN(C)C5)c4ccsc4c3-c3c(F)cc(F)cc3OC3CC3)cc2C1C (stereo not drawn) [Compound 549],A (percent of modification of PIK3CA protein ≥75%)
< 100,C=CC(=O)N1CCn2nc(-c3nc(-c4ccc5c(c4)CCN(C)C5)c4ccsc4c3-c3c(F)cc(F)cc3OCC(C)O)cc2C1C (stereo not drawn) [Compound 550],A (percent of modification of PIK3CA protein ≥75%)
< 100,C=CC(=O)N1CCn2nc(-c3nc(-c4cnn(C)c4)c4ccsc4c3-c3c(F)cc(F)cc3OCC(C)O)cc2C1C (stereo not drawn) [Compound 551],A (percent of modification of PIK3CA protein ≥75%)
